Like-named read-outs stand apart in the source and are kept apart here.
Assays:
KP1009 CTX-M-15 = assay: Aztreonam potentiation (MPC@4), strain KP1009 CTX-M-15; conditions: minimum BLI concentration inhibiting growth with aztreonam 4 μg/mL; tested up to 40 μg/mL
KP1004 KPC-2 [1] = assay: Biapenem potentiation (MPC@1), strain KP1004 KPC-2; type: cell-based; conditions: minimum BLI concentration inhibiting growth with biapenem 1 μg/mL; tested up to 40 μg/mL
Procedure: (§1) Biapenem was present in the test medium at 1 μg/mL. […] Table 3 summarizes the BLI potency of biapenem potentiation (MPC@1) for two strains overexpressing class A (KPC) and class D (OXA-48) carbapenemases. Biapenem MIC for each strain is also shown.

ec302 TEM-10 = assay: Aztreonam potentiation (MPC@4), strain ec302 TEM-10; conditions: minimum BLI concentration inhibiting growth with aztreonam 4 μg/mL; tested up to 40 μg/mL
ec308 SHV-5 = assay: Aztreonam potentiation (MPC@4), strain ec308 SHV-5; conditions: minimum BLI concentration inhibiting growth with aztreonam 4 μg/mL; tested up to 40 μg/mL
AB1053 OXA-72 = assay: Meropenem potentiation (MPC@8), strain AB1053 OXA-72; type: cell-based, Acinetobacter baumannii; conditions: minimum BLI concentration inhibiting growth with meropenem 8 μg/mL; tested up to 20 μg/mL
KP1086 OXA-48 = assay: Biapenem potentiation (MPC@1), strain KP1086 OXA-48; type: cell-based; conditions: minimum BLI concentration inhibiting growth with biapenem 1 μg/mL; tested up to 40 μg/mL
Procedure: as §1

KP1004 KPC-2 [2] = assay: Aztreonam potentiation (MPC@4), strain KP1004 KPC-2; conditions: minimum BLI concentration inhibiting growth with aztreonam 4 μg/mL; tested up to 40 μg/mL
AB1054 OXA-23 = assay: Meropenem potentiation (MPC@8), strain AB1054 OXA-23; type: cell-based, Acinetobacter baumannii; conditions: minimum BLI concentration inhibiting growth with meropenem 8 μg/mL; tested up to 20 μg/mL
EC1010 CMY-6 = assay: Aztreonam potentiation (MPC@4), strain EC1010 CMY-6; conditions: minimum BLI concentration inhibiting growth with aztreonam 4 μg/mL; tested up to 40 μg/mL
KP1010 SHV-12 = assay: Aztreonam potentiation (MPC@4), strain KP1010 SHV-12; conditions: minimum BLI concentration inhibiting growth with aztreonam 4 μg/mL; tested up to 40 μg/mL
KP1005 CTX-M-14 = assay: Tigemonam potentiation (MPC@4), strain KP1005 CTX-M-14; conditions: minimum BLI concentration inhibiting growth with tigemonam 4 μg/mL; tested up to 40 μg/mL
[3] = target: T1, purified class A, C and D enzymes (β-lactamases) (Acinetobacter baumannii, UniProt Q9L4P2); assay: biochemical; type: biochemical; conditions: purified OXA-23; nitrocefin (NCF) as reporter substrate
T1 construct: rows headed: Ki (OXA-23, NCF), uM; other: purified OXA-23; nitrocefin (NCF) as reporter substrate
T1 sequence (Q9L4P2 whole entry): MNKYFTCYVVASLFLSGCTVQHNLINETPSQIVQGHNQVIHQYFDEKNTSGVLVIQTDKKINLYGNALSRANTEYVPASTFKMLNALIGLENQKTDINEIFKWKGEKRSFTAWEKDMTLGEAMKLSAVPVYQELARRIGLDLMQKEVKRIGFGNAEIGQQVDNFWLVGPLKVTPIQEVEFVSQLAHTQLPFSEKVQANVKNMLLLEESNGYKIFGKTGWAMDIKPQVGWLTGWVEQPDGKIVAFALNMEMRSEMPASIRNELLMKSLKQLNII

[4] = target: purified class A, C and D enzymes (β-lactamases) (Escherichia coli, UniProt Q9L5C7); assay: biochemical; type: biochemical; conditions: purified CTX-M-14; nitrocefin (NCF) as reporter substrate
purified class A, C and D enzymes (β-lactamases) (Escherichia coli, UniProt Q9L5C7), sequence (Q9L5C7 entry or part of it): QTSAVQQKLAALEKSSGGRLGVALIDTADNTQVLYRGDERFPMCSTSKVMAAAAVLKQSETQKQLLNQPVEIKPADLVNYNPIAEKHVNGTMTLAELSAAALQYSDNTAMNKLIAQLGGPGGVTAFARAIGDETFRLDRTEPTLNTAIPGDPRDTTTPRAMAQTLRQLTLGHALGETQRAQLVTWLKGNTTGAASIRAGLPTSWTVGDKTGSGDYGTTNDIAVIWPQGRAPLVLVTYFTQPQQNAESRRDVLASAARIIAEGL

[5] = target: T2, purified class A, C and D enzymes (β-lactamases) (Pseudomonas aeruginosa, UniProt P24735); assay: biochemical; type: biochemical
T2 construct: rows headed: Ki (Pa-AmpC, NCF), uM; other: purified Pa-AmpC; nitrocefin (NCF) as reporter substrate
T2 sequence (P24735 whole entry): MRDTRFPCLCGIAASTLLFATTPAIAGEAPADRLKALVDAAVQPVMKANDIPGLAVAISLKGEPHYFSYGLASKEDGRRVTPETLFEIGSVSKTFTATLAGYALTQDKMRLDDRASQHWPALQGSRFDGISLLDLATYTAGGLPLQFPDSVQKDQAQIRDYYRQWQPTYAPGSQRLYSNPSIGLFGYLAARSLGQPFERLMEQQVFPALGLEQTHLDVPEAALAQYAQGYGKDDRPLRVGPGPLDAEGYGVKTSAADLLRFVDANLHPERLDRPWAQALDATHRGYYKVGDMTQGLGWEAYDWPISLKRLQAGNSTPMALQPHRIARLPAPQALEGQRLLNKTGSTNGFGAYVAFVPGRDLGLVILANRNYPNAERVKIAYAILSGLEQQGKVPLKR

[6] = target: purified class A, C and D enzymes (β-lactamases) (Enterobacter cloacae, UniProt P05364); assay: biochemical; type: biochemical
purified class A, C and D enzymes (β-lactamases) (Enterobacter cloacae, UniProt P05364), sequence (P05364 21-381): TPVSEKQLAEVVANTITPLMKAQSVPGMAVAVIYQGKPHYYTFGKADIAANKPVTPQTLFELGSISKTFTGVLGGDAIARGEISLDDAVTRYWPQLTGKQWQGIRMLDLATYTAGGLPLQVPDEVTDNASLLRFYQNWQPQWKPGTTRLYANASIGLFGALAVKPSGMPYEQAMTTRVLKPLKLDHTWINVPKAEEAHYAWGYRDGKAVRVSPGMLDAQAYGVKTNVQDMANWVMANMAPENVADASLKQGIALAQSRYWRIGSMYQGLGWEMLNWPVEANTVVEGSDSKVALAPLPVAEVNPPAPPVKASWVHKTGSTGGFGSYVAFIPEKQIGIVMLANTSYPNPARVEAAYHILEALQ

[7] = target: purified class A, C and D enzymes (β-lactamases) (Klebsiella pneumoniae, UniProt Q6XEC0); assay: biochemical; type: biochemical; conditions: purified OXA-48; nitrocefin (NCF) as reporter substrate
[8] = target: purified class A, C and D enzymes (β-lactamases) (Klebsiella pneumoniae, UniProt Q9F663); assay: biochemical; type: biochemical; conditions: purified KPC-2; nitrocefin (NCF) as reporter substrate
[9] = target: T3, purified class A, C and D enzymes (β-lactamases) (UniProt P0AD64, L31Q/G234S/E235K, species not given); assay: biochemical; type: biochemical
T3 construct: Ki (SHV-12, NCF), uM; other: purified SHV-12; nitrocefin (NCF) as reporter substrate
T3 sequence (P0AD64 1-286 L31Q/G234S/E235K): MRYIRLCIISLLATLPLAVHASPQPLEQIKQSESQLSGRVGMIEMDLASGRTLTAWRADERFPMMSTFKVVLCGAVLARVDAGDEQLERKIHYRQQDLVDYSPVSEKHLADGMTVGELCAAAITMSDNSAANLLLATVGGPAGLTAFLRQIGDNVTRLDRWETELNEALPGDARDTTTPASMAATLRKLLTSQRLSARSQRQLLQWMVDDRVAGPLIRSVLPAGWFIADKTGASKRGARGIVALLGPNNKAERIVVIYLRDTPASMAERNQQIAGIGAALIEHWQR

ECL1002 = assay: Aztreonam potentiation (MPC@4), strain ECL1002; conditions: minimum BLI concentration inhibiting growth with aztreonam 4 μg/mL; tested up to 40 μg/mL
[10] = read-out: Ki (SHV-12, NCF); purified SHV-12; nitrocefin (NCF) as reporter substrate

| Compound | AZT MPC4 CTX-M-15 KP1009 (KP1009 CTX-M-15) | BPM MPC1 KP1004 KPC-2 (KP1004 KPC-2 [1]) | AZT MPC4 TEM-10 ec302 (ec302 TEM-10) | AZT MPC4 SHV-5 ec308 (ec308 SHV-5) | MPM MPC8 AB1053 OXA-72 (AB1053 OXA-72) | BPM MPC1 OXA-48 KP1086 (KP1086 OXA-48) | AZT MPC4 KPC-2 KP1004 (KP1004 KPC-2 [2]) | MPM MPC8 AB1054 OXA-23 (AB1054 OXA-23) | AZT MPC4 CMY-6 EC1010 (EC1010 CMY-6) | AZT MPC4 SHV-12 KP1010 (KP1010 SHV-12) | TIG MPC4 CTX-M-14 KP1005 (KP1005 CTX-M-14) | Ki [3] | Ki (CTX-M-14, NCF), uM [4] | Ki [5] | Ki (P99, NCF), uM [6] | Ki (OXA-48, NCF), uM [7] | Ki (KPC-2, NCF), uM [8] | Ki [9, 10] | AZT MPC4 ECL1002 (ECL1002) | also measured |
| --- | --- | --- | --- | --- | --- | --- | --- | --- | --- | --- | --- | --- | --- | --- | --- | --- | --- | --- | --- | --- |
| O=C([O-])c1c(-c2ccn[nH]2)ccc2c1O[B-](O)(O)CC2.[Na+].[Na+] [Compound 15, Disodium; 4,4-dihydroxy-8-(1H-pyrazol-5-yl)-5-oxa-4-boranuidabicyclo[4.4.0]deca-1(6),7,9-triene-7-carboxylate] | X (X = MPC@4 ≤ 5 μg/mL) | X (X = MPC@1 ≤ 5 μg/mL) | X (X = MPC@4 ≤ 5 μg/mL) | X (X = MPC@4 ≤ 5 μg/mL) | X (X = MPC@1 ≤ 5 μg/mL) | X (X = MPC@1 ≤ 5 μg/mL) | X (X = MPC@4 ≤ 5 μg/mL) | X (X = MPC@1 ≤ 5 μg/mL) | X (X = MPC@4 ≤ 5 μg/mL) | X (X = MPC@4 ≤ 5 μg/mL) | Z (Z = MPC@4 > 20 μg/mL) | < 0.1 µM | X (X = Ki ≤ 0.1 μM) | < 0.1 µM | X (key: X = Ki ≤ 0.1 μM; Y = 0.1 μM < Ki ≤ 1 μM; Z = Ki > 1 μM) | X (X = Ki ≤ 0.1 μM) | X (X = Ki ≤ 0.1 μM) | < 0.1 µM | X (X = MPC@4 ≤ 5 μg/mL) |  |
| NCCn1cc(-c2ccc3c(c2C(=O)O)O[B-](O)(O)CC3)nn1 [Compound 17, Disodium; 8-[1-(2-aminoethyl)triazol-4-yl]-4,4-dihydroxy-5-oxa-4-boranuidabicyclo[4.4.0]deca-1(6),7,9-triene-7-carboxylate] | Z (Z = MPC@4 > 20 μg/mL) | X (X = MPC@1 ≤ 5 μg/mL) | Z (Z = MPC@4 > 20 μg/mL) | Z (Z = MPC@4 > 20 μg/mL) | X (X = MPC@1 ≤ 5 μg/mL) | X (X = MPC@1 ≤ 5 μg/mL) | X (X = MPC@4 ≤ 5 μg/mL) | X (X = MPC@1 ≤ 5 μg/mL) | Y (Y = 5 μg/mL < MPC@4 ≤ 20 μg/mL) | Y (Y = 5 μg/mL < MPC@4 ≤ 20 μg/mL) | Z (Z = MPC@4 > 20 μg/mL) | < 0.1 µM | X (X = Ki ≤ 0.1 μM) | 0.1 to 1 µM | Y (key: X = Ki ≤ 0.1 μM; Y = 0.1 μM < Ki ≤ 1 μM; Z = Ki > 1 μM) | X (X = Ki ≤ 0.1 μM) | X (X = Ki ≤ 0.1 μM) | 0.1 to 1 µM | Z (Z = MPC@4 > 20 μg/mL) |  |
| C#Cc1ccc2c(c1C(=O)[O-])O[B-](O)(O)CC2.[Na+].[Na+] [Compound 18, Disodium; 8-ethynyl-4,4-dihydroxy-5-oxa-4-boranuidabicyclo[4.4.0]deca-1(6),7,9-triene-7-carboxylate] | X (X = MPC@4 ≤ 5 μg/mL) | X (X = MPC@1 ≤ 5 μg/mL) | X (X = MPC@4 ≤ 5 μg/mL) | X (X = MPC@4 ≤ 5 μg/mL) | X (X = MPC@1 ≤ 5 μg/mL) | X (X = MPC@1 ≤ 5 μg/mL) | X (X = MPC@4 ≤ 5 μg/mL) | X (X = MPC@1 ≤ 5 μg/mL) | X (X = MPC@4 ≤ 5 μg/mL) | X (X = MPC@4 ≤ 5 μg/mL) | Z (Z = MPC@4 > 20 μg/mL) | < 0.1 µM | X (X = Ki ≤ 0.1 μM) | < 0.1 µM | X (key: X = Ki ≤ 0.1 μM; Y = 0.1 μM < Ki ≤ 1 μM; Z = Ki > 1 μM) | X (X = Ki ≤ 0.1 μM) | X (X = Ki ≤ 0.1 μM) | < 0.1 µM | X (X = MPC@4 ≤ 5 μg/mL) |  |
| NCCn1cc(COc2ccc3c(c2C(=O)O)O[B-](O)(O)CC3)nn1 [Compound 23, Disodium; 8-[[1-(2-aminoethyl)triazol-4-yl]methoxy]-4,4-dihydroxy-5-oxa-4-boranuidabicyclo[4.4.0]deca-1(6),7,9-triene-7-carboxylate] | X (X = MPC@4 ≤ 5 μg/mL) | X (X = MPC@1 ≤ 5 μg/mL) | X (X = MPC@4 ≤ 5 μg/mL) | Y (Y = 5 μg/mL < MPC@4 ≤ 20 μg/mL) | X (X = MPC@1 ≤ 5 μg/mL) | X (X = MPC@1 ≤ 5 μg/mL) | X (X = MPC@4 ≤ 5 μg/mL) | X (X = MPC@1 ≤ 5 μg/mL) | X (X = MPC@4 ≤ 5 μg/mL) | X (X = MPC@4 ≤ 5 μg/mL) | Z (Z = MPC@4 > 20 μg/mL) | < 0.1 µM | X (X = Ki ≤ 0.1 μM) | < 0.1 µM | X (key: X = Ki ≤ 0.1 μM; Y = 0.1 μM < Ki ≤ 1 μM; Z = Ki > 1 μM) | X (X = Ki ≤ 0.1 μM) | X (X = Ki ≤ 0.1 μM) | < 0.1 µM | X (X = MPC@4 ≤ 5 μg/mL) |  |
| C#CCOc1ccc2c(c1C(=O)O)OB(O)CC2 [Compound 25, 2-Hydroxy-7-prop-2-ynoxy-3,4-dihydro-1,2-benzoxaborinine-8-carboxylic acid] | X (X = MPC@4 ≤ 5 μg/mL) | X (X = MPC@1 ≤ 5 μg/mL) | X (X = MPC@4 ≤ 5 μg/mL) | X (X = MPC@4 ≤ 5 μg/mL) | X (X = MPC@1 ≤ 5 μg/mL) | X (X = MPC@1 ≤ 5 μg/mL) | X (X = MPC@4 ≤ 5 μg/mL) | X (X = MPC@1 ≤ 5 μg/mL) | X (X = MPC@4 ≤ 5 μg/mL) | X (X = MPC@4 ≤ 5 μg/mL) | Z (Z = MPC@4 > 20 μg/mL) | < 0.1 µM | X (X = Ki ≤ 0.1 μM) |  |  | X (X = Ki ≤ 0.1 μM) | X (X = Ki ≤ 0.1 μM) |  | X (X = MPC@4 ≤ 5 μg/mL) | Ki ([5]; purified Pa-AmpC, nitrocefin (NCF) as reporter substrate, read-out: Ki (Pa-AmpC, NCF)): < 0.1 µM; Ki (P99, NCF), uM ([6]; purified P99, nitrocefin (NCF) as reporter substrate): X (X = Ki ≤ 0.1 μM); Ki ([9]; purified SHV-12; nitrocefin (NCF) as reporter substrate; read-out: Ki (SHV-12, NCF)): < 0.1 µM |

Source: patent US10618918B2, “Substituted boronic acids as antimicrobials” (priority 2015, dated 2020)
